Laboratory results from the supplement of paper PMC4862054.

Legend:
Conditions in all cases: incubation time: 72 h
[1] = test system: MDA-MB-231; test: drug sensitivity score (DSS), CellTiter-Glo (DSS (AUC-based score)); higher = stronger drug effect (viability inhibition or cytotoxicity); extreme values may be limits of the assay
Method in brief: (§1)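 A drug sensitivity score was derived from the area under each fitted dose-response curve. Breast cancer cells (20 µl suspension) were seeded onto compound in 384-well plates, using 5 concentrations 10-fold apart over a compound-specific 10,000-fold range, and incubated 72 h. Readouts were CellTox Green fluorescence and then CellTiter-Glo luminescence, with every plate normalised to 0.1 % DMSO and a positive kill control.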

[2] = test system: HCC1937; test: as above
Method in brief: as §1

[3] = test system: HDQ-P1; test: as above
Method in brief: as §1

[4] = test system: BT-474; test: as above
Method in brief: as §1

[5] = test system: MCF-10A; test: as above
Method in brief: as §1

[6] = test system: HCC1143; test: as above
Method in brief: as §1

[7] = test system: MDA-MB-231; test: normalised viability (% of control), CellTiter-Blue; higher = more viable cells (about 100 = DMSO control)
Method in brief: (§2)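 The reported quantity is normalised viability at a single listed concentration of the series. Compound in 5 µl medium was pre-dispensed into 384-well plates and 20 µl of breast cancer cell suspension was added for 72 h. A 2 h, 37 °C CellTiter-Blue step (2.5 µl) preceded fluorescence reading at 560/590 nm, and plates were normalised to vehicle (100) and a positive kill control (0).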

[8] = test system: CAL-51; test: as above
Method in brief: as §2

[9] = test system: MDA-MB-436; test: as above
Method in brief: as §2

[10] = test system: SK-BR-3; test: as above
Method in brief: as §2

[11] = test system: CAL-120; test: as above
Method in brief: as §2

[12] = test system: HCC1599; test: as above
Method in brief: as §2

[13] = test system: CAL-148; test: as above
Method in brief: as §2

[14] = test system: Hs578T; test: as above
Method in brief: as §2

[15] = test system: MFM-223; test: as above
Method in brief: as §2

[16] = test system: CAL-85-1; test: as above
Method in brief: as §2

[17] = test system: MDA-MB-468; test: as above
Method in brief: as §2

[18] = test system: BT-549; test: as above
Method in brief: as §2

[19] = test system: HCC1937; test: as above
Method in brief: as §2

[20] = test system: HDQ-P1; test: as above
Method in brief: as §2

[21] = test system: BT-474; test: as above
Method in brief: as §2

[22] = test system: DU-4475; test: as above
Method in brief: as §2

[23] = test system: MDA-MB-453; test: as above
Method in brief: as §2

[24] = test system: HCC1143; test: as above
Method in brief: as §2

Nc1nc(Cl)nc2c1ncn2[C@@H]1O[C@H](CO)[C@@H](O)[C@@H]1F [Clofarabine]
Conditions	drug sensitivity score
[1]	1.71
[2]	0
[3]	3.38
[4]	5.27
[5]	5.94
[6]	10.8

normalised viability [%]
Conditions	3 nM	10 nM	30 nM	100 nM	1000 nM	10000 nM
[7]	–	89.1	–	–	64.4	57.8
[8]	109	–	102	108	–	–
[9]	–	109	–	–	47.6	56
[10]	–	93	–	–	41.9	35.6
[11]	–	89.1	–	–	47.7	50.4
[12]	–	106	–	–	87.5	71.6
[13]	82.6	–	87.8	83.3	–	–
[14]	–	98.1	–	–	67.3	61.5
[15]	–	92.6	–	–	85.3	86.2
[16]	95.8	–	90.4	82.6	–	–
[17]	–	98.5	–	–	39.5	20.5
[18]	–	87.5	–	–	50.6	42.3
[19]	–	92.6	–	–	28.9	26.9
[20]	105	–	106	88.9	–	–
[21]	–	106	–	–	101	102
[22]	90.6	–	92.8	94.4	–	–
[23]	102	–	105	97.9	–	–
[24]	–	74.5	–	–	52.4	45

CCN(CC)CCOc1ccc(C(=C(Cl)c2ccccc2)c2ccccc2)cc1 [Clomifene]
Conditions	drug sensitivity score
[1]	5.02
[2]	5.68
[3]	0
[4]	4.51
[5]	1.05
[6]	0

normalised viability [%]
Conditions	3 nM	10 nM	30 nM	100 nM	1000 nM	10000 nM
[7]	–	98.8	–	–	93.8	14.1
[8]	95.6	–	90.3	98.9	–	–
[9]	–	119	–	–	109	27.5
[10]	–	105	–	–	105	67.2
[11]	–	93.4	–	–	95.3	18
[12]	–	93.8	–	–	106	68.1
[13]	88.2	–	94.8	101	–	–
[14]	–	105	–	–	121	59.8
[15]	–	102	–	–	106	28.3
[16]	91.3	–	92.4	91.2	–	–
[17]	–	98.2	–	–	98.1	6.16
[18]	–	109	–	–	96.6	36
[19]	–	115	–	–	117	55.6
[20]	133	–	130	114	–	–
[21]	–	118	–	–	111	17.1
[22]	101	–	98.4	111	–	–
[23]	116	–	114	104	–	–
[24]	–	86.2	–	–	84	85.2

C[C@@H]1C[C@H]2[C@@H]3CCC4=CC(=O)C=C[C@]4(C)[C@@]3(F)[C@@H](O)C[C@]2(C)[C@@]1(O)C(=O)CO [Dexamethasone]
Conditions	drug sensitivity score
[1]	0
[2]	0
[3]	4.16
[4]	0
[5]	0
[6]	0

normalised viability [%]
Conditions	3 nM	10 nM	30 nM	100 nM	1000 nM	10000 nM
[7]	–	125	–	–	111	146
[8]	106	–	91.9	95.6	–	–
[9]	–	127	–	–	89.6	104
[10]	–	99.2	–	–	86.7	93
[11]	–	76	–	–	77	80.1
[12]	–	124	–	–	82.1	86.7
[13]	93.6	–	108	99.2	–	–
[14]	–	120	–	–	122	98
[15]	–	93.4	–	–	94.2	87.2
[16]	102	–	93.1	110	–	–
[17]	–	114	–	–	112	100
[18]	–	93.6	–	–	90.3	93.5
[19]	–	82.5	–	–	100	78.9
[20]	111	–	100	108	–	–
[21]	–	110	–	–	119	118
[22]	90	–	86.9	98.3	–	–
[23]	110	–	78.2	76.3	–	–
[24]	–	76.5	–	–	89.1	81.2

CC(C)C(=O)Nc1ccc([N+](=O)[O-])c(C(F)(F)F)c1 [Flutamide]
Conditions	drug sensitivity score
[1]	0
[2]	0
[3]	0
[4]	0
[5]	0
[6]	0

normalised viability [%]
Conditions	3 nM	10 nM	30 nM	100 nM	1000 nM	10000 nM
[7]	–	93.7	–	–	99.5	102
[8]	118	–	108	106	–	–
[9]	–	91.5	–	–	95.4	91.6
[10]	–	108	–	–	106	106
[11]	–	96.7	–	–	95.6	96.8
[12]	–	105	–	–	114	118
[13]	95.5	–	99.9	103	–	–
[14]	–	96.4	–	–	109	96.7
[15]	–	89.4	–	–	84.8	109
[16]	101	–	91.8	101	–	–
[17]	–	97.6	–	–	103	111
[18]	–	89.7	–	–	84.3	90
[19]	–	96.9	–	–	84.2	97
[20]	109	–	105	109	–	–
[21]	–	117	–	–	115	116
[22]	111	–	85.1	97.2	–	–
[23]	123	–	94.8	107	–	–
[24]	–	82	–	–	86.3	82.5

COc1cc2c(Oc3ccc(NC(=O)C4(C(=O)Nc5ccc(F)cc5)CC4)cc3F)ccnc2cc1OCCCN1CCOCC1 [Foretinib]
Conditions	drug sensitivity score
[1]	2.4
[2]	0
[3]	0
[4]	2.19
[5]	1.41
[6]	1.22

normalised viability [%]
Conditions	0.3 nM	1 nM	3 nM	10 nM	100 nM	1000 nM
[7]	–	97.8	–	–	113	50.6
[8]	99.1	–	88.6	95.2	–	–
[9]	–	132	–	–	77.8	84
[10]	–	97.5	–	–	102	77.5
[11]	–	88.3	–	–	95.4	41.8
[12]	–	77.2	–	–	89.9	72.6
[13]	99.8	–	97.6	96.4	–	–
[14]	–	114	–	–	106	61
[15]	–	102	–	–	58.5	35
[16]	95	–	86.3	95.8	–	–
[17]	–	102	–	–	111	52.4
[18]	–	79	–	–	101	72
[19]	–	80.8	–	–	91.3	64.9
[20]	107	–	99.2	105	–	–
[21]	–	102	–	–	117	84.3
[22]	104	–	91.8	105	–	–
[23]	115	–	91.6	85.9	–	–
[24]	–	104	–	–	103	82.8

NC(=O)NO [Hydroxyurea]
Conditions	drug sensitivity score
[1]	0
[2]	0
[3]	0
[4]	0
[5]	0
[6]	0

normalised viability [%]
Conditions	30 nM	100 nM	300 nM	1000 nM	10000 nM	100000 nM
[7]	–	113	–	–	98.8	93.2
[8]	103	–	107	104	–	–
[9]	–	99.4	–	–	89.4	102
[10]	–	114	–	–	117	114
[11]	–	113	–	–	95.4	101
[12]	–	107	–	–	87.4	95.9
[13]	106	–	116	112	–	–
[14]	–	110	–	–	104	90.3
[15]	–	105	–	–	98.8	116
[16]	104	–	93.2	105	–	–
[17]	–	110	–	–	111	108
[18]	–	82.8	–	–	93.8	87
[19]	–	86.9	–	–	81.2	72.7
[20]	108	–	122	111	–	–
[21]	–	110	–	–	111	110
[22]	122	–	115	98.3	–	–
[23]	124	–	102	116	–	–
[24]	–	99.1	–	–	99.3	92.4

O=NN(CCCl)C(=O)NC1CCCCC1 [Lomustine]
Conditions	drug sensitivity score
[1]	0
[2]	0
[3]	0
[4]	0
[5]	0
[6]	0

normalised viability [%]
Conditions	3 nM	10 nM	30 nM	100 nM	1000 nM	10000 nM
[7]	–	110	–	–	100	95.9
[8]	110	–	109	110	–	–
[9]	–	108	–	–	95.5	97.7
[10]	–	97.3	–	–	125	96
[11]	–	93.9	–	–	91.3	105
[12]	–	108	–	–	81.4	117
[13]	100	–	113	99.4	–	–
[14]	–	105	–	–	98.1	98.7
[15]	–	84.7	–	–	87.9	54.7
[16]	104	–	88	104	–	–
[17]	–	100	–	–	98.1	95.6
[18]	–	84.4	–	–	86.6	84.6
[19]	–	92	–	–	90.4	96
[20]	117	–	98.7	105	–	–
[21]	–	108	–	–	114	128
[22]	117	–	98.7	88.2	–	–
[23]	120	–	102	94.7	–	–
[24]	–	89.3	–	–	90.5	89.5
